Measured values as given in US6737383B1, “Herbicidal oxadiazolidines” (priority 1999, dated 2004).

Tests used:
surinam grass = test: Test B pre/postemergence surinam grass; assay type: in vivo, Brachiaria decumbens; conditions: for B. signalgrass plant response rating: scale of 0 to 10 where 0 is no effect and 10 is complete control
Method in brief: (§1)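 Test chemicals in a non-phytotoxic solvent mixture with surfactant were sprayed preemergence onto planted seeds and postemergence onto plants 2 to 18 cm tall (1- to 4-leaf stage). After twelve to sixteen days in a greenhouse, injury was visually rated against untreated controls from 0 (no effect) to 10 (complete control).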

giant foxtail = test: Test B pre/postemergence giant foxtail; assay type: in vivo, Setaria faberii; conditions: for Giant foxtail plant response rating: scale of 0 to 10 where 0 is no effect and 10 is complete control
Method in brief: as §1

wild oat = test: Test B pre/postemergence wild oat; assay type: in vivo, Avena fatua; conditions: for Wild oats plant response rating: scale of 0 to 10 where 0 is no effect and 10 is complete control
Method in brief: as §1

cocklebur = test: Test B pre/postemergence cocklebur; assay type: in vivo, Xanthium strumarium; conditions: for Cocklebur plant response rating: scale of 0 to 10 where 0 is no effect and 10 is complete control
Method in brief: as §1

corn = test: Test B pre/postemergence corn; assay type: in vivo, Zea mays; conditions: for Corn plant response rating: scale of 0 to 10 where 0 is no effect and 10 is complete control
Method in brief: as §1

sugar beet = test: Test B pre/postemergence sugar beet; assay type: in vivo, Beta vulgaris; conditions: for Sugarbeets plant response rating: scale of 0 to 10 where 0 is no effect and 10 is complete control
Method in brief: as §1

purple nutsedge = test: Test B pre/postemergence purple nutsedge; assay type: in vivo, Cyperus rotundus; conditions: for Nutsedge plant response rating: scale of 0 to 10 where 0 is no effect and 10 is complete control
Method in brief: as §1

rice = test: Test B flood test rice; assay type: in vivo, Oryza sativa
Method in brief: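 Each value is a visual injury score relative to controls, with 10 meaning complete control and 0 no effect. Evaluation took place twelve to sixteen days after the 2-leaf-stage plants were treated and kept in the greenhouse.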

[1] = Postemergence, Rate 250 g/ha, scale 0 to 10, 0 is no effect, 10 is complete control
[2] = Preemergence, Rate 62 g/ha, scale 0 to 10 (0 no effect, 10 complete control)
[3] = Rate 500 g/ha, Postemergence, scale 0 to 10, 0 no effect, 10 complete control
[4] = Postemergence, Rate 125 g/ha, scale 0 to 10, 0 is no effect, 10 is complete control

SMILES: CCN(CC)C(=O)n1oc(=O)n(-c2ccccc2C)c1=O [Compound 364]
- Plant response rating, B. signalgrass (surinam grass; [1]): 0
- Plant response rating, B. signalgrass (surinam grass; [2]): 0
- B. signalgrass plant response rating (0 to 10 scale, 0 is no effect, 10 is complete control) (surinam grass; Preemergence, Rate 125 g/ha): 0
- B. signalgrass plant response rating (surinam grass; Preemergence, Rate 250 g/ha): 0
- B. signalgrass plant response rating (surinam grass; Preemergence, Rate 500 g/ha): 3
- B. signalgrass plant response rating (surinam grass; Rate 62 g/ha, Postemergence): 0
- Plant response rating, B. signalgrass (surinam grass; [3]): 1
- Plant response rating, Giant foxtail (giant foxtail; [4]): 3
- Plant response rating, Giant foxtail (giant foxtail; [1]): 6
- Plant response rating, Giant foxtail (giant foxtail; [2]): 3
- Giant foxtail plant response rating (0 to 10 scale) (giant foxtail; Preemergence, Rate 125 g/ha): 6
- Giant foxtail plant response rating (giant foxtail; Preemergence, Rate 250 g/ha): 9
- Giant foxtail plant response rating (giant foxtail; Preemergence, Rate 500 g/ha): 10
- Giant foxtail plant response rating (giant foxtail; Rate 62 g/ha, Postemergence): 0
- Plant response rating, Giant foxtail (giant foxtail; [3]): 8
- Plant response rating, Wild oats (wild oat; [4]): 0
- Plant response rating, Wild oats (wild oat; [1]): 0
- Plant response rating, Wild oats (wild oat; [2]): 0
- Wild oats plant response rating (0 to 10 scale) (wild oat; Preemergence, Rate 125 g/ha): 0
- Wild oats plant response rating (wild oat; Preemergence, Rate 250 g/ha): 0
- Wild oats plant response rating (wild oat; Preemergence, Rate 500 g/ha): 3
- Wild oats plant response rating (wild oat; Rate 62 g/ha, Postemergence): 0
- Plant response rating, Wild oats (wild oat; [3]): 0
- Plant response rating, Cocklebur (cocklebur; [4]): 0
- Plant response rating, Cocklebur (cocklebur; [1]): 0
- Plant response rating, Cocklebur (cocklebur; [2]): 0
- Cocklebur plant response rating (0 to 10 scale) (cocklebur; Preemergence, Rate 125 g/ha): 0
- Cocklebur plant response rating (cocklebur; Preemergence, Rate 250 g/ha): 0
- Cocklebur plant response rating (cocklebur; Preemergence, Rate 500 g/ha): 0
- Cocklebur plant response rating (cocklebur; Rate 62 g/ha, Postemergence): 0
- Plant response rating, Cocklebur (cocklebur; [3]): 2
- Plant response rating, Corn (corn; [4]): 0
- Plant response rating, Corn (corn; [1]): 2
- Plant response rating, Corn (corn; [2]): 0
- Corn plant response rating (0 to 10 scale) (corn; Preemergence, Rate 125 g/ha): 0
- Corn plant response rating (corn; Preemergence, Rate 250 g/ha): 0
- Corn plant response rating (corn; Preemergence, Rate 500 g/ha): 0
- Corn plant response rating (corn; Rate 62 g/ha, Postemergence): 0
- Plant response rating, Corn (corn; [3]): 3
- Plant response rating, Sugarbeets (sugar beet; [4]): 0
- Plant response rating, Sugarbeets (sugar beet; [1]): 0
- Plant response rating, Sugarbeets (sugar beet; [2]): 0
- Sugarbeets plant response rating (0 to 10 scale) (sugar beet; Preemergence, Rate 125 g/ha): 0
- Sugarbeets plant response rating (sugar beet; Preemergence, Rate 250 g/ha): 0
- Sugarbeets plant response rating (sugar beet; Preemergence, Rate 500 g/ha): 0
- Sugarbeets plant response rating (sugar beet; Rate 62 g/ha, Postemergence): 0
- Plant response rating, Sugarbeets (sugar beet; [3]): 1
- Plant response rating, Nutsedge (purple nutsedge; [4]): 0
- Plant response rating, Nutsedge (purple nutsedge; [1]): 0
- Plant response rating, Nutsedge (purple nutsedge; [2]): 0
- Nutsedge plant response rating (0 to 10 scale) (purple nutsedge; Preemergence, Rate 125 g/ha): 0
- Nutsedge plant response rating (purple nutsedge; Preemergence, Rate 250 g/ha): 0
- Nutsedge plant response rating (purple nutsedge; Rate 62 g/ha, Postemergence): 0
- Plant response rating, Nutsedge (purple nutsedge; [3]): 0
- Plant response rating, Rice (rice; Postemergence (flood test), Rate 125 g/ha, scale 0 to 10, 0 is no effect, 10 is complete control): 0
- Rice plant response rating (rice; Rate 62 g/ha, Postemergence (flood test species), scale of 0 to 10 where 0 is no effect and 10 is complete control): 0
- Plant response rating, Rice (rice; Rate 500 g/ha, listed under Postemergence (flood test species), scale 0 to 10, 0 no effect, 10 complete control): 0
- Plant response rating, Rice (rice; flood test species, listed under Postemergence, Rate 250 g/ha, scale 0 to 10, 0 is no effect, 10 is complete control): 0
